Patent publication US12473250B2, “Molecular design of new antibiotics and antibiotic adjuvants against MCR strains” (priority 2019, dated 2025)
“Also recorded” adds a separate entry of the source.

Legend:
[1] = system: ENT CLOACAE multi-drug resistant strains; assay: Synergy of LC100 with colistin against multi-drug resistant strains (Table 5); assay type: cell-based, E. cloacae
Method: (§1) The MICs of the individual drugs and LC compound in combinations were determined using the broth microdilution technique as recommended by the CLSI whereby the two anti-microbial agents were added in an equal amount. (e.g.: 50 μL of Colistin: 50 μL of LC compounds). Diluted media containing compounds and antibiotics will be serially diluted 2-fold, and LC compounds and antibiotics alone or in combination will be assayed at fixed synergy concentration. In all cases, the lowest concentration at which no visible growth occurred was be recorded to be the MIC value of individual and combined antibacterial agents. The results were obtained after 24 hours of incubation.

[2] = system: colistin resistant mcr-1 (+) strains 6083655967, 6075066346 and mcr-1 (−) strain 7023446108; assay: Time kill study; assay type: cell-based, E. coli; details: in 2 hours
Method: Time kill assay is used to determine the rate at which concentrations an antimicrobial agent kill a bacterial isolate. The bacterial suspension was adjusted to 10^6 to 10^7 CFU/mL with different concentrations of LC compounds and the antibiotics for comparison in separate tubes that incubated at 35° C. For synergy time kill: Two different antimicrobial agents which are antibiotic/LC compounds were added in an equal amount make a final volume to 1 mL (e.g: 500 μL of Antibiotic: 500 μL of LC compound) and subsequently 1 mL of prepared bacteria suspension were added into the same tube. Aliquots of 100 μL samples will be withdrawn at different time intervals (0, 1, 2, 4, 8, 24 hours) and were plated on Mueller Hinton Agar (MHA) upon set of serial dilutions. Subsequently, after 24 and 48 hours, all the plates were checked for bacteria growth and the colonies were calculated for colony-forming unit (CFU/mL) numeration and the time kill curve plotted with logarithm of the viable count against time. The results from various concentrations of antibiotics and control were plotted.
To understand the action of the combinations of LC100 with colistin, time kill experiments using the inventive combination in three colistin resistant strains, including two mcr-1(+) and one mcr-1(−) strains, were carried out.

[3] = Calcein leakage from large unilamellar vesicles; details: vesicles of 100 nm, DOPE/DOPG=3/1
Text: FIG. 20 refers to a graph showing calcein leakage of LC100 and LC101 using large unilamellar vesicles of 100 nm. The lipid composition of the vesicle is DOPE/DOPG=3/1, mimicking the bacterial inner membrane. […] Further increase of LC100 or LC101 leads to decrease in the florescence because of a fluorescence quenching effect.

[4] = system: 6083655967 [MCR 1+; E.Coli]; assay: Synergistic study between LC100 or LC101 with B2088; assay type: cell-based; details: for Combination MIC: strain 6083655967, value of each component
Method: as §1
Using the combination of LC100 and colistin, the activity of a broad range of strains was further tested (Table 7).

[5] = system: KLPN multi-drug resistant strains; assay: Synergy of LC100 with colistin against multi-drug resistant strains (Table 5); assay type: cell-based, Klebsiella pneumonia
Method: as §1

[6] = system: Gram positive bacteria (SA and MRSA strains); assay: Antimicrobial effect on Gram positive bacteria (Table 8); assay type: cell-based; set-up: key to antimicrobial effect on Gram positive bacteria: MIC (concentration giving 99% inhibition), concentrations in μg; details: compound alone
Method: (§2) MIC experiments of the antimicrobial agents were determined by a modified broth microdilution method in accordance with the Clinical and Laboratory Standards Institute (CLSI) guidelines using 96 well culture plates. In brief, serial dilutions of all plates were prepared at different concentrations (μg). The inoculum suspension was prepared by adding isolated colonies from a 18-20 hours on TSA plate into phosphate buffer (0.31 mM, pH 7.2) or in water for injection (BBraun) and adjusting the suspension to a turbidity equivalent to 0.5 McFarland Standard. Each well contained a final bacterial concentration of approximately 5×10^5 colony forming units (CFU)/mL. The plate was covered and incubated at 35° C. for 24 hours. […] For the microdilution plates, turbidity in wells can be measured at OD600 using TECAN infinite M200Pro. MIC was determined as […] concentration that gives a 99 percent inhibition.
The antimicrobial activity of the inventive combination was also tested against Gram positive bacteria, including the multi-drug resistant strains, such as MRSA. […] This means the combination of LC100/LC101 with colistin has broad antimicrobial spectrum, being active against both Gram positive and Gram negative bacteria.

[7] = system: ACBA multi-drug resistant strains; assay: Synergy of LC100 with colistin against multi-drug resistant strains (Table 5); assay type: cell-based, Acinetobacter baumannii
Method: as §1

[8] = system: PAE strains (CRE strains, colistin sensitive); assay: MIC of polymyxin B or colistin alone (Table 4); assay type: cell-based, P. aeruginosa; set-up: unit: μg/mL
Method: as §2

[9] = system: colistin resistant MCR (−) E. Coli strains; assay: MIC, broth microdilution, compound alone; assay type: cell-based
How it was run: (§3)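 Modified CLSI broth microdilution; inoculum from 18–20 h TSA colonies adjusted to 0.5 McFarland, ~5×10^5 CFU/mL per well. Plates incubated 24 h at 35 °C; turbidity may be read at OD600. MIC defined as concentration giving 99% inhibition.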

[10] = system: colistin resistant MCR (−) E. Cloacae strain 7023456439; assay: MIC, broth microdilution, compound alone; assay type: cell-based; details: strain 7023456439 E. Cloacae
How it was run: as §3

CCN(CC)CCCCOc1ccc(/C=C/C(=O)c2ccc(OCCCCN(CC)CC)c(CC=C(C)C)c2O)cc1 [LC100]
Colistin MIC in the presence of LC100 ([1]; strain ENT CLOACAE 6780, LC 100 2 μg): 0.39 µg/mL | Colistin MIC in the presence of LC100 ([1]; strain ENT CLOACAE 6780, LC 100 5 μg): <0.0975 µg/mL | Colistin MIC in the presence of LC100 ([1]; strain ENT CLOACAE 21489, LC 100 2 μg): 0.195 µg/mL | Colistin MIC in the presence of LC100 ([1]; strain ENT CLOACAE 21489, LC 100 5 μg): <0.0975 µg/mL | Colistin MIC in the presence of LC100 ([1]; strain ENT CLOACAE 30063, LC 100 2 μg): 25 µg/mL | Colistin MIC in the presence of LC100 ([1]; strain ENT CLOACAE 30063, LC 100 5 μg): 6.25 µg/mL | Colistin MIC in the presence of LC100 ([1]; strain ENT CLOACAE 44095, LC 100 2 μg): >25 µg/mL | Colistin MIC in the presence of LC100 ([1]; strain ENT CLOACAE 44095, LC 100 5 μg): >25 µg/mL | log reduction in time kill ([2]; ⅛ MIC of colistin in the presence of 10 μg/ml of LC100): 3 log | calcein leakage / disruption of vesicles [3]: significant florescence was detected; also recorded: disrupts liposomes | Combination MIC ([4]; combination B2088 (Ac) + LC 100): 2 µg/mL | Combination MIC ([4]; combination B2088 + LC 100): 1 µg/mL | level of synergistic effect with B2088 ([4]; killing E. coli with the mcr-1 mutation): 1 µg/mL | Colistin MIC in the presence of LC100 ([5]; strain KLPN 8852, LC 100 2 μg): >25 µg/mL | Colistin MIC in the presence of LC100 ([5]; strain KLPN 8852, LC 100 5 μg): 25 µg/mL | Colistin MIC in the presence of LC100 ([5]; strain KLPN 15588, LC 100 2 μg): 0.39 µg/mL | Colistin MIC in the presence of LC100 ([5]; strain KLPN 15588, LC 100 5 μg): <0.0975 µg/mL | Colistin MIC in the presence of LC100 ([5]; strain KLPN 24076, LC 100 2 μg): 0.39 µg/mL | Colistin MIC in the presence of LC100 ([5]; strain KLPN 24076, LC 100 5 μg): <0.0975 µg/mL | Colistin MIC in the presence of LC100 ([5]; strain KLPN 27025, LC 100 2 μg): 0.195 µg/mL | Colistin MIC in the presence of LC100 ([5]; strain KLPN 27025, LC 100 5 μg): <0.0975 µg/mL | activity against Gram positive strains ([6]; in words): good activity | antimicrobial effect on Gram positive bacteria ([6]; strain MRSA ATCC 43300): 3.125 | antimicrobial effect on Gram positive bacteria ([6]; strain MRSA ATCC 700699): 3.125 | antimicrobial effect on Gram positive bacteria ([6]; strain MRSA DM 21455): 3.125 | antimicrobial effect on Gram positive bacteria ([6]; strain SA ATCC 6538): 3.125 | antimicrobial effect on Gram positive bacteria ([6]; strain SA ATCC 29213): 3.125 | antimicrobial effect on Gram positive bacteria ([6]; strain SA DM 4400R): 3.125 | Colistin MIC in the presence of LC100 ([7]; strain ACBA 1010, LC 100 2 μg): <0.0975 µg/mL | Colistin MIC in the presence of LC100 ([7]; strain ACBA 1010, LC 100 5 μg): <0.0975 µg/mL | Colistin MIC in the presence of LC100 ([7]; strain ACBA 1012, LC 100 2 μg): 0.39 µg/mL | Colistin MIC in the presence of LC100 ([7]; strain ACBA 1012, LC 100 5 μg): <0.0975 µg/mL | Colistin MIC in the presence of LC100 ([7]; strain ACBA 43357, LC 100 2 μg): 0.39 µg/mL | Colistin MIC in the presence of LC100 ([7]; strain ACBA 43357, LC 100 5 μg): <0.0975 µg/mL | Colistin MIC in the presence of LC100 ([7]; strain ACBA ATCC 19606, LC 100 2 μg): 0.195 µg/mL | Colistin MIC in the presence of LC100 ([7]; strain ACBA ATCC 19606, LC 100 5 μg): <0.0975 µg/mL

Colistin
log reduction in time kill ([2]; colistin at concentrations equal or above the MIC): 3 log | MIC (antibiotic alone) ([8]; strain PAE 4877): 1.56 | MIC (antibiotic alone) ([8]; strain PAE 5790): 1.56 | MIC (antibiotic alone) ([8]; strain PAE 14476): 1.56 | MIC ([9]; strain 6083672926, MCR (−)): 12.5 µg/mL | MIC ([9]; strain 7023446108, MCR (−)): 6.25 µg/mL | MIC ([9]; strain 7033607097, MCR (−)): 6.25 µg/mL | MIC [10]: 100 µg/mL
